IC50 and half-life data for 14 compounds are collected here from US20220380378A1 (ESSA Pharma, Inc., priority 2021, published 2022).

One data set has as its target T1, androgen receptor (AR) (Homo sapiens, UniProt P10275, T878A).
T1 sequence (P10275 1-920 T878A): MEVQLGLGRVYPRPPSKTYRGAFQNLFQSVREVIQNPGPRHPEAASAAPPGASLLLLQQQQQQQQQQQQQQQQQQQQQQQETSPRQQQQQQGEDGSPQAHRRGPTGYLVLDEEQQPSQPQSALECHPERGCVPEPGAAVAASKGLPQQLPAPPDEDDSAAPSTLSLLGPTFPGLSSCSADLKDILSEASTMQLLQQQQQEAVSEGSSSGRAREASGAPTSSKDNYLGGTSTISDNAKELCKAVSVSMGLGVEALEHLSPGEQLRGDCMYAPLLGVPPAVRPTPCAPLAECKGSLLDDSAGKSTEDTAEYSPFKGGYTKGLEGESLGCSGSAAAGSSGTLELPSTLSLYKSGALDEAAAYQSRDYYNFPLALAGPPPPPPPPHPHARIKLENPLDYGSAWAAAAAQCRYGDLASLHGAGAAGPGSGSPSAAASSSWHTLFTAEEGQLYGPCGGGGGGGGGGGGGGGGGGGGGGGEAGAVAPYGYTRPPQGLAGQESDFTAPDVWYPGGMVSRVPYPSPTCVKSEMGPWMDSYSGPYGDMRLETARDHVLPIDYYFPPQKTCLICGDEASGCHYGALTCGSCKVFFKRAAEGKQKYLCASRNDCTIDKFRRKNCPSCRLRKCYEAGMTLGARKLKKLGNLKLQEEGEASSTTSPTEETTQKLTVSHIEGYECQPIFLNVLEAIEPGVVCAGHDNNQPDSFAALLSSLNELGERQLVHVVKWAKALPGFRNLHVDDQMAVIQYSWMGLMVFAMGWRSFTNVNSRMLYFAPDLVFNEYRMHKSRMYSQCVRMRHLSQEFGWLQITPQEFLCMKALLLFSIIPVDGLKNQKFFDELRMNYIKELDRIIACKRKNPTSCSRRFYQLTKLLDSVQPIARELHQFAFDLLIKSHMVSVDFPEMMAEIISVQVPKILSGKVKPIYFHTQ
The data set is described as follows: Androgen-induced PSA (6.1 kb)-luciferase reporter assay in LNCaP cells (R1881 1 nM). To be noted: 24 h, read-out: PSA-Luc IC50 Range. Details: endogenous in cells; host or cells: LNCaP. In kind it is cell-based. The method, boiled down:
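Compound or vehicle was added 1 h before 1 nM R1881 to LNCaP cells carrying a transiently transfected (24 h) PSA (6.1 kb)-luciferase reporter. After 24 h androgen exposure, lysate luminescence was normalized to protein and expressed versus vehicle plus R1881 for IC50.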
(In a reporter assay the amount or activity of a reporter protein is the signal.)

Data set [1] can be described thus: Microsomal stability assay, liver microsome half-life (human). Particulars: pH 7.4; human liver microsomes 0.5 mg/mL, 1 μM compound, 37° C.; read-out: Liver microsome T1/2 Human. It is filed as in vitro ADME. An excerpt: (§1) Microsomal Stability Assay: Microsomal stability assay is a widely used in vitro model to characterize the metabolic conversion by phase I enzymes, such as cytochrome P450 (CYP) enzymes. Since metabolism is known to be highly variable in different species, microsomal stability assay is commonly run in multiple species. Metabolic stability of testing compound can be evaluated using human, rat, mouse, or other animal liver or intestine microsomes to predict intrinsic clearance.
(§2) The assay was carried out in 96-well microtiter plates at 37° C. Reaction mixtures (25 μL) contained a final concentration of 1 μM test compound, 0.5 mg/mL liver microsomes protein, and 1 mM NADPH and/or 1 mM UDPGA (with alamethicin) in 100 mM potassium phosphate, pH 7.4 buffer with 3 mM MgCl2. The incubation was done with N=1, but duplicate incubation at each time point can be prepared if necessary. At each of the time points (for example, 0, 15, 30, and 60 minutes), 150 μL of quench solution (100% acetonitrile with 0.1% formic acid) with internal standard was transferred to each well. Besides the zero minute controls, mixtures containing the same components except the NADPH can also be prepared as the negative control. Verapamil was included as a positive control to verify assay performance. Plates were sealed, vortexed, and centrifuged at 4° C. for 15 minutes at 4000 rpm. The supernatant is transferred to fresh plates for LC/MS/MS analysis.
(§3) Summarized conditions: [Compound]=1 μM, [LM]=0.5 mg/mL, [NADPH]=1 mM and/or [UDPGA]=1 mM, Buffer=100 mM Potassium Phosphate, pH 7.4 with 3 mM MgCl2, Time=0, 15, 30, and 60 min, and Temperature=37° C.
(§4) All samples were analyzed on LC/MS/MS using an AB Sciex API 4000 instrument, coupled to a Shimadzu LC-20AD LC Pump system. Analytical samples were separated using a Waters Atlantis T3 dC18 reverse phase HPLC column (20 mm×2.1 mm) at a flow rate of 0.5 mL/min. The mobile phase consisted of 0.1% formic acid in water (solvent A) and 0.1% formic acid in 100% acetonitrile (solvent B).
(§5) The extent of metabolism is calculated as the disappearance of the test compound, compared to the 0-min time incubation. Initial rates are calculated for the compound concentration and used to determine half-life (t½). […]
(In general: Liver microsomes are a subcellular fraction often used to study metabolism.)

Data set [2] is described as follows: Microsomal stability assay, liver microsome half-life (monkey). To be noted: pH 7.4; monkey liver microsomes 0.5 mg/mL, 1 μM compound, 37° C.; read-out: Liver microsome T1/2 Monkey. It is filed as in vitro ADME.
Source text: as §1, §2, §3, §4
(§6) The extent of metabolism is calculated as the disappearance of the test compound, compared to the 0-min time incubation. Initial rates are calculated for the compound concentration and used to determine half-life (t½).

Data set [3] in a line: Microsomal stability assay, liver microsome half-life (mouse). In kind it is in vitro ADME. To be noted: pH 7.4; mouse liver microsomes 0.5 mg/mL, 1 μM compound, 37° C.; read-out: Liver microsome T1/2 Mouse.
Source text: as §1, §2, §3, §4, §5

Data set [4] in a line: Microsomal stability assay, liver microsome half-life (rat). To be noted: pH 7.4; rat liver microsomes 0.5 mg/mL, 1 μM compound, 37° C.; read-out: Liver microsome T1/2 Rat. In kind it is in vitro ADME.
Source text: as §1, §2, §3, §4, §5

Data set [5] can be described thus: Microsomal stability assay, liver microsome half-life (dog). In kind it is in vitro ADME. To be noted: pH 7.4; dog liver microsomes 0.5 mg/mL, 1 μM compound, 37° C.; read-out: Liver microsome T1/2 Dog.
Source text: as §1, §2, §3, §4, §6

As to `CS(=O)(=O)NC1CN(CCc2ccc3c(ccn3-c3cc(Cl)c(OCCCl)c(C#N)c3)c2)C1` [Compound A126, N-(1-(2-(1-(3-chloro-4-(2-chloroethoxy)-5-cyanophenyl)-1H-indol-5-yl)ethyl)azetidin-3-yl)methanesulfonamide], the IC50 on androgen receptor (AR) was in the range of 500 to 2000 nM. Moreover, the half-life at 1 μM was greater than 2 h in data set [1]; 0.583 h in data set [2]; greater than 2 h in data set [3]; 0.95 h in data set [4]; 0.733 h in data set [5].

Consider `CC(Oc1ccc2c(ccn2-c2cc(Cl)c(OCCCl)c(C#N)c2)c1)C12CC(NS(C)(=O)=O)(C1)C2` (stereo not drawn) [Compound A180], for which, at androgen receptor (AR), the IC50 fell in the range of 500 to 2000 nM. Also, the half-life at 1 μM in data set [1] was greater than 2 h; in data set [2], 0.75 h; in data set [3] it was greater than 2 h; in data set [4], greater than 2 h; in data set [5], 0.967 h.

In the case of `CC(C)(c1ccc(-c2ccc3nc(NS(C)(=O)=O)cnc3c2)cc1)c1cc(Cl)c(OCCCl)c(C#N)c1` [Compound A107, N-(6-(4-(2-(3-chloro-4-(2-chloroethoxy)-5-cyanophenyl)propan-2-yl)phenyl)quinoxalin-2-yl)methanesulfonamide], the half-maximal inhibitory concentration (IC50) on androgen receptor (AR) was less than 500 nM. In addition, the half-life at 1 μM in data set [1], in data set [2], in data set [3], in data set [4] and in data set [5] was greater than 2 h throughout.

As for `CC(C)(c1ccc(-c2cnc3nc(NS(C)(=O)=O)ccc3c2)cc1)c1cc(Cl)c(OCCCl)c(C#N)c1` [Compound A194], on androgen receptor (AR), the 50% inhibitory concentration (IC50) is less than 500 nM. In addition, the half-life at 1 μM in data set [1] is 1.97 h; in data set [2], greater than 2 h; in data set [3], greater than 2 h; in data set [4], greater than 2 h; in data set [5], 1.48 h.

`CS(=O)(=O)NC1CCN(Cc2ccc3c(ccn3-c3cc(Cl)c(OCCCl)c(C#N)c3)c2)CC1` [Compound A169]: the concentration for half-maximal inhibition (IC50) on androgen receptor (AR) is greater than 2000 nM. Besides, the half-life at 1 μM in data set [1], in data set [2], in data set [3], in data set [4] and in data set [5] was greater than 2 h throughout.

Turning to `CS(=O)(=O)Nc1nccc(COc2ccc3c(ccn3-c3cc(Cl)c(OCCCl)c(C#N)c3)c2)n1` [Compound A36, N-(4-(((1-(3-chloro-4-(2-chloroethoxy)-5-cyanophenyl)-1H-indol-5-yl)oxy)methyl)pyrimidin-2-yl)methanesulfonamide], the half-inhibitory concentration (IC50) on androgen receptor (AR) is less than 500 nM. Further, the half-life at 1 μM in data set [1], in data set [2], in data set [3], in data set [4] and in data set [5] was greater than 2 h each time.

Regarding `CS(=O)(=O)N[C@H]1C[C@H](COc2ccc3c(ccn3-c3cc(Cl)c(OCCCl)c(C#N)c3)c2)C1` [Compound A135], the half-inhibitory concentration (IC50) on androgen receptor (AR) is 500 to 2000 nM. For the same compound, the half-life at 1 μM was greater than 2 h in data set [1]; 0.733 h in data set [2]; 1.97 h in data set [3]; greater than 2 h in data set [4]; greater than 2 h in data set [5].

As to `CC(C)(c1ccc(-c2ccc3c(c2)CCN(S(C)(=O)=O)C3)cc1)c1cc(Cl)c(OCCCl)c(C#N)c1` [Compound A114], at androgen receptor (AR), the IC50 lay within 500 to 2000 nM. Moreover, the half-life at 1 μM is greater than 2 h in data set [1]; greater than 2 h in data set [2]; greater than 2 h in data set [3]; greater than 2 h in data set [4]; 1.05 h in data set [5].

On to `CC(C)(c1ccc(OCc2ccnc(NS(C)(=O)=O)n2)cc1)c1ccc(OCC(O)CCl)cc1` (stereo not drawn) [Compound A150, N-(4-((4-(2-(4-(3-chloro-2-hydroxypropoxy)phenyl)propan-2-yl)phenoxy)methyl)pyrimidin-2-yl)methanesulfonamide], for which the IC50 on androgen receptor (AR) is less than 500 nM. In addition, the half-life at 1 μM in data set [1], in data set [2], in data set [3], in data set [4] and in data set [5] was greater than 2 h throughout.

With `CS(=O)(=O)Nc1ncc(Cn2ncc3c(-c4cc(Cl)c(OCCCl)c(C#N)c4)cccc32)cn1` [Compound A144], the IC50 on androgen receptor (AR) was 500 to 2000 nM. The half-life at 1 μM in data set [1], in data set [2], in data set [3], in data set [4] and in data set [5] was greater than 2 h each time.

For the compound `CS(=O)(=O)Nc1ncc2cc(-c3ccc(Oc4cc(Cl)c(OCCCl)c(C#N)c4)cc3)ccc2n1` [Compound A116, N-(6-(4-(3-chloro-4-(2-chloroethoxy)-5-cyanophenoxy)phenyl)quinazolin-2-yl)methanesulfonamide], the half-maximal inhibitory concentration (IC50) on androgen receptor (AR) was 500 to 2000 nM. Also, the half-life at 1 μM in data set [1], in data set [2], in data set [3], in data set [4] and in data set [5] was greater than 2 h each time.

In the case of `CC(C)(c1ccc(-c2ccc3nc(NS(C)(=O)=O)oc3c2)cc1)c1cc(Cl)c(OCCCl)c(C#N)c1` [Compound A254], the half-maximal inhibitory concentration (IC50) on androgen receptor (AR) is 500 to 2000 nM. The half-life at 1 μM in data set [1], in data set [2], in data set [3], in data set [4] and in data set [5] was greater than 2 h throughout.

In the case of `CS(=O)(=O)NC1CCN(CCc2ccc3c(ccn3-c3cc(Cl)c(OCCCl)c(C#N)c3)c2)CC1` [Compound A187], at androgen receptor (AR), the IC50 lay in the range of 500 to 2000 nM. Besides, the half-life at 1 μM in data set [1] is greater than 2 h; in data set [2], 1.47 h; in data set [3] it was greater than 2 h; in data set [4] it was greater than 2 h; in data set [5], greater than 2 h.

Take `CS(=O)(=O)N1CC(COc2ccc3c(ccn3-c3cc(Cl)c(OCCCl)c(C#N)c3)c2)C1` [Compound A59]: the concentration for half-maximal inhibition (IC50) at androgen receptor (AR) was less than 500 nM. The half-life at 1 μM in data set [1] is 0.183 h; in data set [2], 0.117 h; in data set [3] it was greater than 2 h; in data set [4], greater than 2 h; in data set [5], 0.967 h.

The term IC50 denotes the concentration at which inhibition is half-maximal.
